In ChEMBL document CHEMBL1134447 (J Med Chem, 2001) one finds solubility and logD data, which are given here for four compounds.

A short description of data set [1]: physchem. The following applies: buffer.
The nature of data set [2]: physchem. The following applies: octanol/water, pH 7.4.

On to `O=C(OCc1cc2c(cc1Cl)OCO2)N1CCC(n2c(O)nc3ccccc32)CC1`, for which the solubility in the data set “physchem [1]” is less than 10 µM. The log distribution coefficient (logD) in the data set “physchem [2]” is 4.2.
Consider `O=C(OC1CCc2ccccc21)N1CCC2(CC1)C(=O)NCN2c1ccccc1` (stereo not drawn), for which, in “physchem [1]”, the solubility was less than 10 µM. The compound further registered a logD in “physchem [2]” of more than 4.
For `O=C(OCc1cccc(Oc2ccccc2)c1)N1CCC2(CC1)C(=O)NCN2c1ccccc1` the same measures were less than 10 µM and more than 4.
For `O=C(NCCCn1c(=O)[nH]c2ccccc21)OCc1cc2c(cc1Cl)OCO2` the same measures were less than 10 µM and more than 4.
